According to BindingDB's records for doi:10.1021/jm00039a025 (Wellcome Research Laboratories, 1994):

Assay: Ability to inhibit glycinamide ribonucleotide transformylase (GAR-Tfase) in vitro, using hog liver with (6R)-10-formyl-FH4 as cofactor

## Nc1nc(N)c(CCCNc2ccc(C(=O)N[C@H](CCC(=O)O)C(=O)O)s2)c(=O)[nH]1 [(S)-2-({5-[3-(2,4-Diamino-6-oxo-1,6-dihydro-pyrimidin-5-yl)-propylamino]-thiophene-2-carbonyl}-amino)-pentanedioic acid]
  IC50: 2.06 µM

## Nc1nc(N)c(CCCNc2cnc(C(=O)N[C@H](CCC(=O)O)C(=O)O)s2)c(=O)[nH]1 [(S)-2-({5-[3-(2,4-Diamino-6-oxo-1,6-dihydro-pyrimidin-5-yl)-propylamino]-thiazole-2-carbonyl}-amino)-pentanedioic acid]
  IC50: 0.14 µM
